Laboratory results as given in patent publication US20100169988A1, “MEANS AND METHODS FOR ISOLATING AND DETERMINING NOVEL TARGETS FOR THE TREATMENT OF NEURODEGENERATIVE, NEUROLOGICAL OR NEUROPSYCHIATRIC DISORDERS AND COMPOSITIONS COMPRISING THE SAME” (priority 2006, published 2010).

Biological target: T1, γ-secretase (Homo sapiens, UniProt P49768)
T1 construct: endogenous in cells; host or cells: cells transfected with α-/β-CTF-Citrine constructs
Experiment: Subcellular localization of Citrine-labeled α-CTF/β-CTF constructs
Format: cell-based
Conditions: Hek 293 cells transfected with α-CTF or β-CTF Citrine constructs
Excerpt: In a first step, the CTF constructs alone were transfected, without any additional influence on subcellular localization and an entirely homogeneous distribution of Citrine fluorescence throughout the cell was observed. Like APP, these constructs first require cleavage of the signal peptide by Signal Peptidase. However, these “precleaved” CTFs never require ectodomain-shedding in the conventional sense of α- or β-secretase cleavage, which is time consuming not only because of the cleavage step alone, but because of the protein trafficking required to make APP accessible to the secretases. PS cleavage was therefore assumed to take place much more rapidly than is the case for wtAPP, whereupon the same experiments were performed with γ-secretase inhibitor L-685,458 aiming at prolonging the half-life of the uncleaved CTFs. […] Apart from this stabilization, however, no obvious difference was discerned between the subcellular localization of the two constructs.
Subcellular protein distribution of fluorescently tagged proteins or proteins stained as described supra was analyzed on a Leica TCS/SP2 confocal microscope. Pictures were acquired at a resolution of 1024×1024 using the 63×H2O immersion objective. Typically, 5-8 z-axis sections were recorded across the entire height of embedded cells so that typical section separations were 0.5 μm. […]

With `CC(C)C[C@H](NC(=O)[C@H](Cc1ccccc1)C[C@@H](O)[C@H](Cc1ccccc1)NC(=O)OC(C)(C)C)C(=O)N[C@@H](Cc1ccccc1)C(N)=O` [L-685,458] the “subcellular localization of uncleaved CTF-Citrine” value was “accumulation in ER and Golgi was observed”.
